pIC50, pKi: −log10 of the molar value. Where two headings read alike, the source gives them in different places.
Assays:
human FLAP = human FLAP (Homo sapiens (Human), UniProt P20292); test: FLAP binding assay (HTRF format); details: wild type FLAP, HTRF format
Outline: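 Samples were run in duplicate on each of two plates and the plate results averaged. Read-out is the HTRF signal ratio.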

[1] = system: leukotriene pathway in human whole blood (LTB4 levels); test: Human whole blood assay (A23187-stimulated LTB4); format: cell-based; details: Homo sapiens, read-out: LTB4 IC50 1:1
Outline: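 Heparinised human whole blood diluted 1:1 in RPMI, pre-incubated 15 min at 37° Celsius with compound, then stimulated with A23187 (7 μg/mL) for 30 min at 37° Celsius. Plasma LTB4 measured by immunoassay kit; IC50 from 4-parameter fit; single replicate per plate, at least one healthy donor.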

[2] = human whole blood diluted 1:1, A23187-stimulated

Chain of human FLAP (P20292 whole entry): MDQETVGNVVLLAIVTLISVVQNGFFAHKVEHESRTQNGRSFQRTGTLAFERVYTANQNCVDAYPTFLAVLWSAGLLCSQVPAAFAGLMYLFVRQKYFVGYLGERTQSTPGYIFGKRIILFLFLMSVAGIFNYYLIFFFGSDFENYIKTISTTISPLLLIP

SMILES | pKi (human FLAP) | pIC50 [1, 2] | pIC50 [1]
Nc1cnc(-c2ccc(-c3ccc(C(F)(F)F)cc3Oc3nccc(N)n3)cc2F)cn1 [Example 556, 2-{[4′-(5-Aminopyrazin-2-yl)-3′-fluoro-4-(trifluoromethyl)biphenyl-2-yl]oxy}pyrimidin-4-amine] | 9.00 | 7.89 | 
C[Si](C)(C)CCOCOc1cc(C(F)(F)F)ccc1-c1ccc(-c2cnc(N)nc2)c(F)c1 [Example 557, 5-[3-Fluoro-4′-(trifluoromethyl)-2′-{[2-(trimethylsilyl)ethoxy]methoxy}biphenyl-4-yl]-pyrimidin-2-amine] | 6.83 |  | 5.97
Nc1ncc(-c2ccc(-c3ccc(C(F)(F)F)cc3O)cc2F)cn1 [Example 558, 4′-(2-Aminopyrimidin-5-yl)-3′-fluoro-4-(trifluoromethyl)biphenyl-2-ol] | 7.92 | 6.68 | 
Nc1ccnc(Oc2cc(C(F)(F)F)ccc2-c2ccc(-c3cnc(N)nc3)c(F)c2)n1 [Example 559, 5-{2′-[(4-Aminopyrimidin-2-yl)oxy]-3-fluoro-4′-(trifluoromethyl)biphenyl-4-yl}pyrimidin-2-amine] | 8.70 | 7.26 | 
Nc1ncc(-c2ccc(-c3ccc(C(F)(F)F)cc3Oc3ccnc(N)n3)cc2F)cn1 [Example 560, 4-{[4′-(2-Aminopyrimidin-5-yl)-3′-fluoro-4-(trifluoromethyl)biphenyl-2-yl]oxy}pyrimidin-2-amine] | 8.30 | 7.02 | 
Nc1cc(Oc2cc(C(F)(F)F)ccc2-c2ccc(-c3cnc(N)nc3)c(F)c2)ncn1 [Example 561, 5-{2′-[(6-Aminopyrimidin-4-yl)oxy]-3-fluoro-4′-(trifluoromethyl)biphenyl-4-yl}pyrimidin-2-amine] | 8.40 | 7.37 | 
Nc1cnc(-c2ccc(-c3ccc(C(F)(F)F)cc3C(F)(F)F)cc2F)cn1 [Example 562, 5-[3-Fluoro-2′,4′-bis(trifluoromethyl)biphenyl-4-yl]pyrazin-2-amine] | 7.26 | 6.65 | 
N#Cc1cc(C(F)(F)F)ccc1-c1ccc(-c2cnc(N)cn2)c(F)c1 [Example 563, 4′-(5-Aminopyrazin-2-yl)-3′-fluoro-4-(trifluoromethyl)biphenyl-2-carbonitrile] | 7.70 | 6.48 | 
Nc1ncc(-c2ccc(-c3ccc(C(F)(F)F)cc3Oc3ncccn3)cn2)cn1 [Example 564, 5-{5-[2-(Pyrimidin-2-yloxy)-4-(trifluoromethyl)phenyl]pyrridn-2-yl}pyrimidin-2-amine] | 6.70 | 6.23 | 
Nc1ncc(-c2ccc(-c3ccc(C(F)(F)F)cc3Oc3ccnc(N)n3)cn2)cn1 [Example 565, 4-{2-[6-(2-Aminopyrimidin-5-yl)pyridin-3-yl]-5-(trifluoromethyl)phenoxy}pyrimidin-2-amine] | 7.09 | 6.01 | 
Cc1cc(-c2ccccc2S(=O)(=O)NC(C)(C)C)ccc1-c1cnc(N)cn1 [Example 569, 4′-(5-Aminopyrazin-2-yl)-N-tert-butyl-3′-methylbiphenyl-2-sulfonamide] | 7.15 | 6.47 | 
COc1cc(-c2ccccc2S(=O)(=O)NC(C)(C)C)ccc1-c1cnc(N)cn1 [Example 570, 4′-(5-Aminopyrazin-2-yl)-N-tert-butyl-3′-methoxybiphenyl-2-sulfonamide] | 7.46 | 5.93 | 
CC(C)(C)NS(=O)(=O)c1ccccc1-c1ccc(-c2cnc(N)cn2)cc1 [Example 571, 4′-(5-Aminopyrazin-2-yl)-N-tert-butylbiphenyl-2-sulfonamide] | 8.70 | 7.04 | 
CC(C)(C)NS(=O)(=O)c1ccccc1-c1ccc(-c2cnc(N)cn2)cc1F [Example 574, 4′-(5-Aminopyrazin-2-yl)-N-tert-butyl-2′-fluorobiphenyl-2-sulfonamide] | 7.82 | 6.31 | 
CC(C)(C)NS(=O)(=O)c1ccccc1-c1ccc(-c2coc(N)n2)c(F)c1 [Example 576, 4′-(2-Amino-1,3-oxazol-4-yl)-N-tert-butyl-3′-fluorobiphenyl-2-sulfonamide] | 8.10 | 6.94 | 
CC(C)(C)NS(=O)(=O)c1ccccc1-c1ccc(-c2csc(N)n2)c(F)c1 [Example 577, 4′-(2-Amino-1,3-thiazol-4-yl)-N-tert-butyl-3′-fluorobiphenyl-2-sulfonamide] | 8.00 | 7.04 | 
CCN(CC)S(=O)(=O)c1ccccc1-c1ccc(-c2csc(N)n2)c(F)c1 [Example 578, 4′-(2-Amino-1,3-thiazol-4-yl)-N,N-diethyl-3′-fluorobiphenyl-2-sulfonamide] | 7.60 | 6.02 | 
CC(C)(C)NS(=O)(=O)c1ccccc1-c1ccc(-c2cn3cccc(F)c3n2)c(F)c1 [Example 580, N-tert-Butyl-3′-fluoro-4′-(8-fluoroimidazo[1,2-a]pyridin-2-yl)biphenyl-2-sulfonamide] | 7.26 | 5.30 | 

SMILES | pKi (human FLAP) | pIC50 [1, 2] | pIC50 [1]
CC(C)(C)NS(=O)(=O)c1ccccc1-c1ccc(-c2cn3c(N)cccc3n2)c(F)c1 [Example 581, 4′-(5-Aminoimidazo[1,2-a]pyridin-2-yl)-N-tert-butyl-3′-fluorobiphenyl-2-sulfonamide] | 7.22 | 5.55 | 
COc1cccc2nc(-c3ccc(-c4ccccc4S(=O)(=O)NC(C)(C)C)cc3F)cn12 [Example 588, N-tert-Butyl-3′-fluoro-4′-(5-methoxyimidazo[1,2-a]pyridin-2-yl)biphenyl-2-sulfonamide] | 6.88 | < 5.00 | 
Nc1cnc(-c2ccc(-c3ccccc3-c3ccc(-c4cnc(N)cn4)c(F)c3)cc2F)cn1 [Example 602, 5,5′-(3,3″-Difluoro-1,1′:2′,1″-terphenyl-4,4″-diyl)dipyrazin-2-amine] | 9.22 | 7.78 | 
Nc1cnc(-c2ccc(-c3ccc(C(F)(F)F)cc3C(=O)O)cc2F)cn1 [Example 603, 4′-(5-Aminopyrazin-2-yl)-3′-fluoro-4-(trifluoromethyl)biphenyl-2-carboxylic acid] | 7.56 | < 5.00 | 
Nc1cnc(-c2ccc(-c3ccc(C(F)(F)F)cc3C=O)cc2F)cn1 [Example 604, 4′-(5-Aminopyrazin-2-yl)-3′-fluoro-4-(trifluoromethyl)biphenyl-2-carbaldehyde] | 8.30 | 7.05 | 
Nc1cnc(-c2ccc(-c3ccc(C(F)(F)F)cc3CN3CCOCC3)cc2F)cn1 [Example 605, 5-[3-Fluoro-2′-(morpholin-4-ylmethyl)-4′-(trifluoromethyl)biphenyl-4-yl]pyrazin-2-amine] | 8.72 | 7.01 | 
Nc1cnc(-c2ccc(-c3ccc(C(F)(F)F)cc3CN3CCC(N)CC3)cc2F)cn1 [Example 606, 5-{2′-[(4-Aminopiperidin-1-yl)methyl]-3-fluoro-4′-(trifluoromethyl)biphenyl-4-yl}pyrazin-2-amine] | 7.33 | 5.58 | 
Nc1cnc(-c2ccc(-c3ccc(C(F)(F)F)cc3CNCCO)cc2F)cn1 [Example 607, 2-({[4′-(5-Aminopyrazin-2-yl)-3′-fluoro-4-(trifluoromethyl)biphenyl-2-yl]methyl}amino)ethanol] | 6.86 | 6.82 | 
Cc1cc(C)nc(Oc2ccccc2-c2ccc(-c3cnc(N)cn3)c(F)c2)n1 [Example 608, 5-{2′-[(4,6-Dimethylpyrimidin-2-yl)oxy]-3-fluorobiphenyl-4-yl}pyrazin-2-amine] | 7.54 | 7.27 | 
Cc1cc(C)nc(Oc2ccccc2-c2ccc(-c3cnc(N)nc3)c(F)c2)n1 [Example 609, 5-{2′-[(4,6-Dimethylpyrimidin-2-yl)oxy]-3-fluorobiphenyl-4-yl}pyrimidin-2-amine] | 6.61 | 6.11 | 
Nc1cnc(-c2ccc(-c3ccccc3Oc3ccnc(C(F)(F)F)c3)cc2F)cn1 [Example 610, 5-(3-Fluoro-2′-{[2-(trifluoromethyl)pyridin-4-yl]oxy}biphenyl-4-yl)pyrazin-2-amine] | 7.56 | 6.93 | 
Nc1ncc(-c2ccc(-c3ccccc3Oc3ccnc(C(F)(F)F)c3)cc2F)cn1 [Example 611, 5-(3-Fluoro-2′-{[2-(trifluoromethyl)pyridin-4-yl]oxy}biphenyl-4-yl)pyrimidin-2-amine] | 6.60 | 6.25 | 
Nc1cnc(-c2ccc(-c3ccccc3Oc3nccc(C(F)(F)F)n3)cc2F)cn1 [Example 612, 5-(3-Fluoro-2′-{[4-(trifluoromethyl)pyrimidin-2-yl]oxy}biphenyl-4-yl)pyrazin-2-amine] | 7.84 | 7.38 | 
Nc1ncc(-c2ccc(-c3ccccc3Oc3nccc(C(F)(F)F)n3)cc2F)cn1 [Example 613, 5-(3-Fluoro-2′-{[4-(trifluoromethyl)pyrimidin-2-yl]oxy}biphenyl-4-yl)pyrimidin-2-amine] | 6.67 | 6.25 | 
N#Cc1cccc(Oc2ccccc2-c2ccc(-c3cnc(N)nc3)c(F)c2)n1 [Example 618, 6-{[4′-(2-Aminopyrimidin-5-yl)-3′-fluorobiphenyl-2-yl]oxy}pyridine-2-carbonitrile] | 7.84 | 6.68 | 
N#Cc1cccc(Oc2ccccc2-c2ccc(-c3cnc(N)cn3)c(F)c2)n1 [Example 619, 6-{[4′-(5-Aminopyrazin-2-yl)-3′-fluorobiphenyl-2-yl]oxy}pyridine-2-carbonitrile] | 8.47 | 7.35 | 
Nc1ccc(Oc2ccccc2-c2ccc(-c3cnc(N)cn3)c(F)c2)nc1 [Example 620, 5-{2′-[(5-Aminopyridin-2-yl)oxy]-3-fluorobiphenyl-4-yl}pyrazin-2-amine] | 8.72 | 7.88 | 
Nc1ccc(Oc2ccccc2-c2ccc(-c3cnc(N)nc3)c(F)c2)nc1 [Example 621, 5-{2′-[(5-Aminopyridin-2-yl)oxy]-3-fluorobiphenyl-4-yl}pyrimidin-2-amine] | 8.30 | 7.00 | 
